In patent US20220127565A1, “A Self-Assembling Short Amphiphilic Peptide And Related Methods And Uses” (Agency for Science, Technology and Research, priority 2019, published 2022):
Blank lines part the entries; values can stand above or below the compound they belong to. Residues, ends and D or L forms follow the SMILES beside them.

Assays:
[1] = Gelation in dimethylsulfoxide; assay type: physicochemical
[2] = test system: 8 cm×8 cm excisional full thickness wound; test: Porcine wound healing study of peptide hydrogel wound dressings; assay type: in vivo; details: hydrogel applied weekly for 6 weeks
Description: A porcine wound healing study was performed to evaluate the peptide hydrogels for wound healing applications. An 8 cm×8 cm excisional full thickness wound was created on the back of the animal, and three of the peptide hydrogels were applied using a polydimethylsiloxane mould. Wound dressing changes were carried out weekly for 6 weeks, with application of fresh hydrogel.

[3] = test system: embryonic stem cells H1 and H9; test: 3D culture of pluripotent stem cells encapsulated in hydrogel droplets; assay type: cell-based, human; details: for Colony formation of single cell suspensions in hydrogel: H1 and H9, cell encapsulation densities exceeding 5×10^6 cells/mL
Description: (§1) 3D Encapsulation of Stem Cells.
(§2) H1 embryonic stem cells cultured on Matrigel were dissociated into single cells using TrypLE Express, and re-suspended in 50% mTESR in PBS at an approximate concentration of 4×10^6, 10^7 or 1.6×10^7 cells/mL. 0.5 μL of cells was injected into a droplet of 2 μL 10 mg/mL peptide solution. Warmed culture media (mTESR) containing ROCK inhibitor Y-27632 was added for the first day and replaced by either mTESR or endoderm differentiation media subsequently. The endoderm differentiation protocol was adapted from Spence et al (2011). Briefly, the encapsulated cells were exposed to RPMI media containing 100 ng/mL Activin A, 2 mM glutamax, 1% penicillin-streptomycin and increasing concentrations of defined fetal bovine serum. After 3 days, the hydrogel droplets were washed with RPMI and incubated in hindgut differentiation media (RPMI media containing 1% defined fetal bovine serum, 1% penicillin-streptomycin, 2 mM glutamax, 500 ng/mL FGF4 and 500 ng/mL Wnt3A.
Immunohistochemistry and Confocal Microscopy Imaging.
Cell samples were fixed in 4% paraformaldehyde for 15 minutes and permeabilized in 0.01% Triton-X for 10 minutes. The encapsulated human embryonic stem cells were incubated at 4° C. overnight in 5% Bovine-Serum Albumin containing primary antibodies. The corresponding secondary antibodies and DAPI were applied for 90 minutes before the samples were imaged. Confocal microscopy was performed using a Zeiss LSM 510 microscope at the Institute of Medical Biology Microscopy Unit (A*STAR, Singapore).

[4] = Rheology, storage modulus of hydrogels; assay type: physicochemical; details: hydrogels prepared in buffered saline
Description: Hydrogel samples were prepared in polydimethysiloxane moulds to obtain approximately 1 mm thick, 8 mm diameter discs. Dynamic strain and oscillatory frequency sweep experiments were carried out using the ARES-G2 Rheometer (TA Instruments, Piscataway, N.J.) with 8 mm titanium parallel plate geometry. The readings of 3 samples were averaged for each condition.

[5] = Gelation / hydrogel formation, minimum gelation concentration in water, buffered saline or PBS; assay type: physicochemical; details: for Self-assembly into hydrogels / scaffolds: aqueous conditions; for Minimum gelation concentration in buffered saline / Self-assembly into hydrogels / scaffolds: buffered saline
Description: Preparation of Hydrogels.
Lyophilized peptide powder was dissolved in milliQ water and mixed for 30 seconds by vortexing to obtain a homogenous solution. 10% volume of 10-times phosphate-buffered saline was subsequently added and mixed by pipetting. Gelation occurred between seconds (PBS) to overnight (water), depending on the peptide concentration and solution used.

[6] = Circular dichroism spectroscopy, secondary structure transitions with increasing peptide concentration; assay type: physicochemical; details: for Secondary structure transitions: Table 1; for Secondary structure / conformational transitions (circular dichroism): increasing peptide concentration
Description: Circular Dichroism Spectroscopy.
CD spectra were collected with a Jasco CD spectrophotometer fitted with a temperature controller, using quartz suprasil cuvettes with an optical path length of 1 mm. All samples were prepared in milIQ water and equilibrated for an hour at room temperature before measurement. Data acquisition was performed for wavelength range from 190-260 nm with a spectral bandwidth of 1.0 nm. All spectra were baseline-corrected using milliQ water as baseline. The mean residue ellipticity (MRE) was calculated as follows:
[θ]=θ/(10·N·c·l) where […] represents the ellipticity in millidegrees, N the number of amino acid residues, c the molar concentration in mol·L-1, and I the cell path length in cm.

[7] = TGA degradation temperature; assay type: physicochemical
[8] = Thixotropy of hydrogel, recovery after vortexing; assay type: physicochemical; details: hydrogel disturbed by vortexing
[9] = test system: H1 human embryonic stem cells; test: Chromosomal aberrations after 5 passages of 3D culture; assay type: cell-based
Description: as §1, §2

[10] = test system: H9 embryonic stem cells; test: 3D endoderm / hindgut differentiation of encapsulated stem cells (H9); assay type: cell-based, human; details: H9 in 8 mg/mL hydrogel droplets

Compound: Ac-HGAVLI-NH2 [Ac-HGAVLI-NH2]
Gel formation in dimethylsulfoxide [1]: thixotrophic gels
Reduction of wound size [2]: effective reduction of wound size

Compound: Ac-ILVAGK-NH2 [Ac-ILVAGK-NH2, reference compound]
Colony formation of single cell suspensions in hydrogel [3]: several colonies developed
Storage moduli of hydrogels [4]: ~10 kPa
Minimum gelation concentration in buffered saline [5]: 3 mg/mL
Secondary structure transitions [6]: Yes

Compound: Ac-GAVLI-NH2 [Ac-GAVLI-NH2]
Gel formation in dimethylsulfoxide [1]: thixotrophic gels

Compound: CC[C@H](C)[C@H](NC(C)=O)C(=O)N[C@H](C(=O)N[C@@H](CC(=O)O)C(=O)O)C(C)C [Ac-IVD, reference compound] (Ac-Ile-Val-Asp-OH; C-terminus assumed)
[Peptide] min, PBS [5]: 19.2 mg/mL
[Peptide] min, water [5]: 40.8 mg/mL
TGA Degradation Temperature [7]: 323.6 °C

Compound: CC[C@H](C)[C@H](NC(=O)[C@@H](NC(=O)[C@H](CC(=O)O)NC(C)=O)C(C)C)C(N)=O [Ac-DVI-NH2] (Ac-Asp-Val-Ile-NH2)
[Peptide] min, PBS [5]: 9.9 mg/mL
Self-assembly into hydrogels / scaffolds [5]: self-assemble into nanofibrous scaffolds
[Peptide] min, water [5]: 11.6 mg/mL
Standing time to return to gel state after vortexing [8]: 10 min
TGA Degradation Temperature [7]: 321.5 °C

Compound: CC[C@H](C)[C@H](NC(C)=O)C(=O)N[C@H](C(=O)N[C@@H](CCCCN)C(N)=O)C(C)C [Ac-IVK-NH2, reference compound] (Ac-Ile-Val-Lys-NH2)
Minimum gelation concentration in buffered saline [5]: >30 mg/mL
Secondary structure transitions [6]: Yes

Compound: Ac-HGAVIA-NH2 [Ac-HGAVIA-NH2]
Gel formation in dimethylsulfoxide [1]: thixotrophic gels

Compound: Ac-KGAVLI-NH2 [Ac-KGAVLI-NH2]
Colony formation at lower cell seeding densities ([3]; 2×10^6 cells/mL): formation of several colonies within a single droplet
Colony formation of single cell suspensions in hydrogel [3]: more likely to aggregate into a single colony
Pluripotency, staining of Oct4 and Tral-60 biomarkers ([3]; cultured in defined mTESR media): retained their pluripotency
Retention of the expanding colonies ([3]; day 7, bioprinted hydrogel droplets encapsulating cells): higher retention of the expanding colonies
Cell migration and consistency in generating single colonies ([3]; synthetic 3D stem cell culture substrate, compared to Gen1 analog): enhanced cell migration and better consistency in generating single colonies
Mutagenicity, chromosomal aberrations [9]: non-mutagenic
Expression of hindgut biomarker Cdx2 ([10]; day 9): expression of hindgut biomarker Cdx2 was observed
Cells expressing Sox17, flow cytometry ([10]; definitive endoderm differentiation): 90%
Minimum gelation concentration in buffered saline [5]: 3 mg/mL
Secondary structure transitions [6]: Yes
Secondary structure / conformational transitions (circular dichroism) [6]: same secondary structure transitions as their parent sequences
Reduction of wound size [2]: effective reduction of wound size

Compound: CC[C@H](C)[C@H](NC(C)=O)C(=O)N[C@H](C(=O)N[C@@H](CC(=O)O)C(N)=O)C(C)C [Ac-IVD-NH2, reference compound] (Ac-Ile-Val-Asp-NH2)
[Peptide] min, PBS [5]: 33.9 mg/mL
[Peptide] min, water [5]: 44.9 mg/mL
TGA Degradation Temperature [7]: 328.5 °C

Now from value to compound, other results behind:

Self-assembly into hydrogels / scaffolds [5]: forms hydrogels in buffered saline
Minimum gelation concentration in buffered saline [5]: 20 mg/mL
Secondary structure transitions [6]: Yes
Secondary structure / conformational transitions (circular dichroism) [6]: same conformational transitions
Compound: H-KGAVLI-NH2 [KGAVLI-NH2]

Gel formation in dimethylsulfoxide [1]: thixotrophic gels
Compound: H-SGAVLI-NH2 [SGAVLI-NH2]
Reduction of wound size [2]: effective reduction of wound size

Gel formation in dimethylsulfoxide [1]: thixotrophic gels
Compound: Ac-SGAVIA-NH2 [Ac-SGAVIA-NH2]

Minimum gelation concentration in buffered saline [5]: >30 mg/mL
Secondary structure transitions [6]: Yes
Compound: CC[C@H](C)[C@H](NC(=O)[C@@H](NC(=O)[C@H](CCCCN)NC(C)=O)C(C)C)C(N)=O [Ac-KVI-NH2] (Ac-Lys-Val-Ile-NH2)
Secondary structure / conformational transitions (circular dichroism) [6]: same secondary structure transitions as their parent sequences
